These results are taken from patent publication US9357779B2 (priority 2010, dated 2016).

The conditions of data set [1]: for log P [a]: acidic range, pH 2.7, 0.1% aqueous formic acid/acetonitrile; for log P [a][d]: pH 2.7, major isomer; for log P [a][e]: pH 2.7, minor isomer.
Experimental: (§1) Calibration was carried out using unbranched alkan-2-ones (having from 3 to 16 carbon atoms) with known log P values (the log P values were determined by the retention times using linear interpolation between two successive alkanones).
Another data set deals with Phytophthora infestans. The format is in vivo. Particulars: tomato plants, protective, active compound concentration 500 ppm, evaluation 7 days after inoculation.
Setting [2] is: pH 2.7, log P [a], acidic range, pH 2.7, 0.1% aqueous formic acid/acetonitrile.

Experimental for physchem: as §1

For the molecule `O=C(/C=C/c1c(F)cccc1F)c1csc(C2CCN(C(=O)Cn3nc(C(F)F)cc3C(F)F)CC2)n1` [Compound I-62], the “log P [a]” value in data set [1] is 3.68^[a];. On to `Cc1cc(C(F)(F)F)nn1CC(=O)N1CCC(c2nc(C(=O)CC(C)(C)c3ccccc3)cs2)CC1` [Compound I-15], for which, in data set [1], the “log P [a]” value was 4.08^[a]. Turning to `Cc1cc(C(F)(F)F)nn1CC(=O)N1CCC(c2nc(C#CC(=O)c3ccco3)cs2)CC1` [Compound I-10], the “log P [a]” value in data set [1] was 2.92^[a]. For the molecule `COc1ccccc1C(=O)CCc1csc(C2CCN(C(=O)Cn3nc(C(F)(F)F)cc3C)CC2)n1` [Compound I-19], the “log P [a]” value in data set [1] was 3.34^[a]. For `Cc1cc(C(F)(F)F)nn1CC(=O)N1CCC(c2nc(C(=O)Cc3ccccc3Br)cs2)CC1` [Compound I-13], the “log P [a]” value in data set [1] is 3.67^[a];. `COc1ccccc1C(=O)C=C(Cl)c1csc(C2CCN(C(=O)Cn3nc(C(F)(F)F)cc3C)CC2)n1` (mixture of isomers) [Compound I-65]: the efficacy in the data set with Phytophthora infestans is recorded as 93%. In data set [1], the “log P [a][d]” value is 3.96^[a][d]; and the “log P [a][e]” value is 3.79^[a][e].

Take `O=C(CC1CCCCC1)c1csc(C2CCN(C(=S)Cn3nc(C(F)F)cc3C(F)F)CC2)n1` [Compound I-58, 1-[2-(1-{2-[3,5-Bis(difluoromethyl)-1H-pyrazol-1-yl]ethanethioyl}piperidin-4-yl)-1,3-thiazol-4-yl]-2-cyclohexylethanone]: the chromatographic logP turned out to be 4.63 in the data set “physchem” (setting [2]) and 4.56 in the data set “physchem” (pH 7.8). `COc1ccc(C(=O)/C=C/c2csc(C3CCN(C(=O)Cn4nc(C(F)F)cc4C(F)F)CC3)n2)c(F)c1` [Compound I-48]: the efficacy with Phytophthora infestans stood at 94%. Also, the “log P [a]” value in data set [1] was 3.45^[a].

As for `O=C(/C=C/c1csc(C2CCN(C(=O)Cn3nc(C(F)F)cc3C(F)F)CC2)n1)c1cccc(F)c1` [Compound I-41], the efficacy with Phytophthora infestans is 95%. Moreover, in data set [1], the “log P [a]” value is 3.48^[a]. For `Cc1cc(C(F)(F)F)nn1CC(=O)N1CCC(c2nc(C(=O)Cc3cccc4ccccc34)cs2)CC1` [Compound I-18], in data set [1], the “log P [a]” value was 3.87^[a].

As to `Cc1cc(C(F)(F)F)nn1CC(=O)N1CCC(c2nc(C#CC(=O)c3ccc(Cl)cc3Cl)cs2)CC1` [Compound I-6], the “log P [a]” value in data set [1] is 4.31^[a]. The molecule `CC(C)(C)C(=O)/C=C/c1csc(C2CCN(C(=O)Cn3nc(C(F)F)cc3C(F)F)CC2)n1` [Compound I-47] had an efficacy in the data set on Phytophthora infestans of 94%. The “log P [a]” value in data set [1] was 3.45^[a].

Regarding `C#CCOc1ccccc1C(C=Cc1csc(C2CCN(C(=O)Cn3nc(C(F)F)cc3C(F)F)CC2)n1)=NO` (mixture of isomers) [Compound I-64], in data set [1], the “log P [a][d]” value is 3.08^[a][d]; and the “log P [a][e]” value was 3.30^[a][e].

`C#Cc1csc(C2CCN(C(=O)Cn3nc(C(F)(F)F)cc3C)CC2)n1` [XX-1, 1-[4-(4-Ethynyl-1,3-thiazol-2-yl)piperidin-1-yl]-2-[5-methyl-3-(trifluoromethyl)-1H-pyrazol-1-yl]ethanone] yielded a chromatographic logP in the data set “physchem” (pH 2.7) of 2.61. The molecule `O=C(CCc1ccccc1)c1csc(C2CCNCC2)n1` [II-2, 4-[4-(3-Phenylpropanoyl)-1,3-thiazol-2-yl]piperidinium chloride] registered a chromatographic logP in “physchem” (pH 2.7) of 1.19. In the case of `CC(C)(C)OC(=O)N1CCC(c2nc(C(O)CCc3ccccc3)cs2)CC1` (stereo not shown) [XVI-1, tert-Butyl 4-[4-(1-hydroxy-3-phenylpropyl)-1,3-thiazol-2-yl]piperidine-1-carboxylate], in “physchem” (pH 2.7), the chromatographic logP was determined as 3.79. On to `O=C(CC1CCCCC1)c1csc(C2CCNCC2)n1` [II-1, 4-[4-(Cyclohexylacetyl)-1,3-thiazol-2-yl]piperidinium chloride], for which, in “physchem” (pH 2.7), the chromatographic logP came to 1.35. For `C#Cc1csc(C2CCN(C(=O)OC(C)(C)C)CC2)n1` [VI-1, tert-Butyl 4-(4-ethynyl-1,3-thiazol-2-yl)piperidine-1-carboxylate], the chromatographic logP in the data set “physchem” (pH 2.7) turned out to be 3.1. `CC(C)(C)OC(=O)N1CCC(c2nc(/C=C/C(=O)c3c(F)cccc3F)cs2)CC1` [IV-3, tert-Butyl 4-[4-[(1E)-3-(2,6-difluorophenyl)-3-oxoprop-1-en-1-yl]-1,3-thiazol-2-yl]piperidine-1-carboxylate]: the chromatographic logP in “physchem” (pH 2.7) was found to be 4.3. In the case of `CC(C)(C)OC(=O)N1CCC(c2nc(C(=O)CCc3ccccc3)cs2)CC1` [IV-2, tert-Butyl 4-[4-(3-phenylpropanoyl)-1,3-thiazol-2-yl]piperidine-1-carboxylate], in “physchem” (pH 2.7), the chromatographic logP was 4.54. As for `Cc1cc(C(F)(F)F)nn1CC(=O)N1CCC(c2nc(C#CC(=O)C(C)(C)C)cs2)CC1` [Compound I-8], the “log P [a]” value in data set [1] was 3.68^[a]. For the molecule `COc1ccc(C(=O)C#Cc2csc(C3CCN(C(=O)Cn4nc(C(F)(F)F)cc4C)CC3)n2)cc1` [Compound I-7], in data set [1], the “log P [a]” value was 3.54^[a].

As for `CC(C)(C)OC(=O)N1CCC(c2nc(C(=O)CC3CCCCC3)cs2)CC1` [IV-1, tert-Butyl 4-[4-(cyclohexylacetyl)-1,3-thiazol-2-yl]piperidine-1-carboxylate], in the data set “physchem” (pH 2.7), the chromatographic logP was 5.43.

With `Cc1cc(C(F)(F)F)nn1CC(=O)N1CCC(c2nc(C#CC(=O)c3cccs3)cs2)CC1` [Compound I-9], the “log P [a]” value in data set [1] is 3.29^[a]. Consider `Cc1cc(C(F)(F)F)nn1CC(=O)N1CCC(c2nc(C(Cl)=CC(=O)c3ccccc3)cs2)CC1` (mixture of isomers) [Compound I-26], for which the “log P [a]” value in data set [1] is 4^[a].

For the molecule `Cc1ccc(C)c(NC(=O)N2CCC(c3nc(/C=C/C(=O)c4c(F)cccc4F)cs3)CC2)c1` [Compound I-23], the efficacy in the data set with Phytophthora infestans is on record as 70%. Also, the “log P [a]” value in data set [1] was 3.56^[a]. In the data set “physchem” (setting [2]), `Cc1cc(C(F)(F)F)nn1CC(=O)N1CCC(c2nc(C(=O)/C=C/c3c(F)cccc3F)cs2)CC1` [Compound I-12, (2E)-3-(2,6-Difluorophenyl)-1-[2-(1-{[5-methyl-3-(trifluoromethyl)-1H-pyrazol-1-yl]acetyl}piperidin-4-yl)-1,3-thiazol-4-yl]prop-2-en-1-one] displayed a chromatographic logP of 3.83. Take `Cc1cc(C(F)(F)F)nn1CC(=O)N1CCC(c2nc(C#CC(=O)c3ccccc3Cl)cs2)CC1` [Compound I-5]: in data set [1], the “log P [a]” value is 3.79^[a].

For `Cc1cccc(CC(=O)c2csc(C3CCN(C(=O)Cn4nc(C(F)F)cc4C(F)F)CC3)n2)c1C` [Compound I-59], in data set [1], the “log P [a]” value was 3.71^[a]. As to `Cc1cc(C(F)(F)F)nn1CC(=O)N1CCC(c2nc(C#CC(=O)C3CCCCC3)cs2)CC1` [Compound I-4], in data set [1], the “log P [a]” value is 4.15^[a]. In the case of `COc1ccccc1C(=O)C#Cc1csc(C2CCN(C(=O)Cn3nc(C(F)(F)F)cc3C)CC2)n1` [Compound I-2], the “log P [a]” value in data set [1] is 3.35^[a];.

Take `Cc1cc(C(F)(F)F)nn1CC(=O)N1CCC(c2nc(C(=O)CCc3ccccc3)cs2)CC1` [Compound I-14, 1-[2-(1-{[5-Methyl-3-(trifluoromethyl)-1H-pyrazol-1-yl]acetyl}piperidin-4-yl)-1,3-thiazol-4-yl]-3-phenylpropan-1-one]: in the data set “physchem” (setting [2]), the chromatographic logP was 3.64. Consider `Cc1cc(C(F)(F)F)nn1CC(=O)N1CCC(c2nc(C(=O)CC3CCCCC3)cs2)CC1` [Compound I-17], for which, in data set [1], the “log P [a]” value is 4.13^[a];. With `O=C(/C=C/c1csc(C2CCN(C(=O)Cn3nc(C(F)F)cc3C(F)F)CC2)n1)c1ccc(F)cc1` [Compound I-40], the “log P [a]” value in data set [1] is 3.43^[a]. Turning to `Cc1cc(C(F)(F)F)nn1CC(=O)N1CCC(c2nc(C#CC(=O)c3ccccc3)cs2)CC1` [Compound I-1], the “log P [a]” value in data set [1] is 3.58^[a]. In turn, `CO/N=C(/Cc1cccc(C)c1C)c1csc(C2CCN(C(=O)Cn3nc(C(F)F)cc3C(F)F)CC2)n1` [Compound I-61] came in with an efficacy in the data set on Phytophthora infestans of 95%. Also, the “log P [a]” value in data set [1] is 4.33^[a].

On to `Cc1cccc(C)c1C(=O)/C=C/c1csc(C2CCN(C(=O)Cn3nc(C(F)F)cc3C(F)F)CC2)n1` [Compound I-63], for which, in data set [1], the “log P [a]” value is 3.65^[a];.

For the molecule `CON(C)C(=O)c1csc(C2CCN(C(=O)OC(C)(C)C)CC2)n1` [Compound V-1, tert-Butyl 4-{4-[methoxy(methyl)carbamoyl]-1,3-thiazol-2-yl}piperidine-1-carboxylate], the chromatographic logP in “physchem” (pH 2.7) came out at 2.4. For `CCOc1ccccc1C(=O)CCc1csc(C2CCN(C(=O)Cn3nc(C(F)(F)F)cc3C)CC2)n1` [Compound I-20, 1-(2-Ethoxyphenyl)-3-[2-(1-{[5-methyl-3-(trifluoromethyl)-1H-pyrazol-1-yl]acetyl}piperidin-4-yl)-1,3-thiazol-4-yl]propan-1-one], the chromatographic logP was 3.7 in “physchem” (setting [2]) and 3.68 in “physchem” (pH 7.8). For the molecule `O=C(/C=C/c1csc(C2CCN(C(=O)Cn3nc(C(F)F)cc3C(F)F)CC2)n1)c1ccccc1` [Compound I-37], the efficacy in the data set with Phytophthora infestans turned out to be 95%. In addition, the “log P [a]” value in data set [1] was 3.31^[a];. `Cc1cc(C(F)(F)F)nn1CC(=O)N1CCC(c2nc(C(=O)Cc3ccccc3)cs2)CC1` [Compound I-16] yielded an efficacy with Phytophthora infestans of 80%. In data set [1], the “log P [a]” value was 3.36^[a]. For `Cc1cc(C(F)(F)F)nn1CC(=O)N1CCC(c2nc(C#CC(=O)c3cccc4ccccc34)cs2)CC1` [Compound I-3], the “log P [a]” value in data set [1] was 4.25^[a]. With `Cc1cccc(C(=O)/C=C/c2csc(C3CCN(C(=O)Cn4nc(C(F)F)cc4C(F)F)CC3)n2)c1` [Compound I-38], in the data set on Phytophthora infestans, the efficacy is 95%. Moreover, the “log P [a]” value in data set [1] was 3.64^[a];.

In turn, `COc1cccc(OC)c1C(=O)/C=C/c1csc(C2CCN(C(=O)Cn3nc(C(F)F)cc3C(F)F)CC2)n1` [Compound I-39] displayed an efficacy in the data set with Phytophthora infestans of 90%. Besides, the “log P [a]” value in data set [1] was 3.04^[a]. For `Cc1cc(C(F)(F)F)nn1CC(=O)N1CCC(c2nc(CCC(=O)c3ccccc3Cl)cs2)CC1` [Compound I-21], the “log P [a]” value in data set [1] is 3.6^[a];. As to `CCOc1ccccc1C(=O)C#Cc1csc(C2CCN(C(=O)Cn3nc(C(F)(F)F)cc3C)CC2)n1` [Compound I-11, 1-(2-Ethoxyphenyl)-3-[2-(1-{[5-methyl-3-(trifluoromethyl)-1H-pyrazol-1-yl]acetyl}piperidin-4-yl)-1,3-thiazol-4-yl]prop-2-yn-1-one], the chromatographic logP in “physchem” (pH 2.7) is 3.78; in the data set “physchem” (setting [2]), 3.76.
